Data published in patent publication US9334475B2, “Method for inducing erythropoietin-producing cell” (Kyoto University, priority 2012, dated 2016).

Assays:
[1] = tested on: EPO-producing cells induced to differentiate from human iPS cells; assay: ELISA of extracellular EPO secretion by EPO-producing cells at various IGF-1 concentrations; type: cell-based
Method: (§1) Human iPS cells (201B6, 201B7, and 253G4) were obtained from Professor Yamanaka of Kyoto University, and cultured in accordance with a conventional method (Takahashi K, et al. Cell. 131: pp. 861 to 872). Using SNL cells (McMahon, A. P. and Bradley, A. (1990) Cell 62; pp. 1073 to 1085) as feeder cells, the iPS cells were cultured to 80 to 90% confluency on a 6 cm dish. The cells were then detached by adding a CTK solution and the feeder cells were removed, and 1 mL of Accutase™ was added to dissociate the iPS cells into single cells.
(§2) Subsequently, the iPS cells were suspended in an RPMI medium containing 10 μM Y-27632, 2% B27, and penicillin/streptomycin and then seeded in a Matrigel-coated 24-well plate at 250,000 cells/well. After adding 100 ng/mL Activin and 1 μM CHIR99021, the volume of medium was adjusted to 0.5 mL/well, and the cells were cultured for six days (Step 1). At this time, on Day 2, 0.5 mM NaB was added to the medium (without medium exchange), and on Day 3, the medium was exchanged for a medium containing 100 ng/mL A ctivin, 1 μM CHIR99021, and 0.5 mM NaB, and on Day 5, the medium was exchanged for a medium containing 100 ng/mL Activin and 1 μM CHIR99021.
After six days of culture, the medium was replaced by a DMEM medium containing 1% DMSO, 50 ng/mL IGF-1, 20% KSR, 2 mM L-glutamine, nonessential amino acid (NEAA), 100 μM β-ME (2-mercaptoethanol), 50 mU/L penicillin, and 50 μg/L streptomycin, and the cells were cultured for a certain period of days (Step 2). During cell culture, the medium was exchanged every other day.
Subsequently, ELISA was performed to study whether the EPO protein expressed was secreted out of the cells. As a result, EPO protein was confirmed outside the cells. […] Further, as a result of studying the amount of IGF-1 added and the number of days of culture, the highest amount of EPO secretion was observed when the cells were cultured for 10 days at 50 ng/mL (FIG. 6). […]

[2] = tested on: EPO-producing cells induced to differentiate from human iPS cells; assay: EPO production-promoting ability in Step 2 of differentiation of human iPS cells; type: cell-based; conditions: Step 2, compared with IGF-2 (FIG. 4)
Method: as §1
as §2, with “CHIR99021. […]” for “CHIR99021.”
In Step 2, the cells were analyzed after 18 days of culture. […]

IGF-1: IGF family gene product used as a growth factor in the Step 2 medium
days of culture in Step 2 giving the highest amount of EPO secretion ([1]; IGF-1 at 50 ng/mL (FIG. 6)): 10 days | change in EPO secretion over time ([1]; IGF-1 at 100 ng/mL, Step 2 (FIG. 6)): an increasing trend of EPO secretion was confirmed up to Day 12 | concentration of IGF-1 added that increased the amount of extracellular secretion of EPO ([1]; Step 2, ELISA, Day 8 cells (FIG. 5)): ≥ 1 ng/mL | EPO production-promoting ability [2]: promote EPO production more potently than IGF-2
